What was measured:
CAI = molecular target: T1, CAI (Homo sapiens, UniProt P00915); test: Thermal shift assay (TSA), recombinant CAI; type: binding; conditions: 37 °C, pH 7.0, observed (not intrinsic)
T1 construct: made in house; host or cells: E. coli

CAXIV = molecular target: T2, CAXIV (Homo sapiens, UniProt Q9ULX7); test: Thermal shift assay (TSA), recombinant CAXIV; type: binding; conditions: 37 °C, pH 7.0, observed (not intrinsic)
T2 construct: Isozymes CAIX, CAXII, and CAXIV were the catalytic domains of the proteins; made in house; host or cells: E. coli
T2 sequence (Q9ULX7 20-278 limits assumed): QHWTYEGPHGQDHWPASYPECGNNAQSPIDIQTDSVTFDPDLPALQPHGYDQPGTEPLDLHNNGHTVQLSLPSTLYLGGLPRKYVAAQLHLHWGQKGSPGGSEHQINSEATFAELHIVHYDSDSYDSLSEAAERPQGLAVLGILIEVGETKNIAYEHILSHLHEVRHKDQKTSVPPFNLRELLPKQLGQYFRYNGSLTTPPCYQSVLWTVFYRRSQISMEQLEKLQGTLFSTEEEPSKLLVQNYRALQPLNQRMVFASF

CAVII = molecular target: T3, CAVII (Homo sapiens, UniProt P43166); test: Thermal shift assay (TSA), recombinant CAVII; type: binding; conditions: 37 °C, pH 7.0, observed (not intrinsic)
T3 construct: made in house; host or cells: E. coli
T3 sequence (P43166 whole entry): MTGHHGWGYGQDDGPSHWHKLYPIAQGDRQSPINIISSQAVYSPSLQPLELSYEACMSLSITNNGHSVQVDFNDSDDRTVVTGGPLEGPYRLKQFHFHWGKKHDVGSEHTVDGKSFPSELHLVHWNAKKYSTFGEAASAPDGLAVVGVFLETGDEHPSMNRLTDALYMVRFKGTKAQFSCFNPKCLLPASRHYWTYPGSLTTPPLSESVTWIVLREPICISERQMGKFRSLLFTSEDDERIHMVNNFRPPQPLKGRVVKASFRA

CAVA = molecular target: T4, CAVA (Homo sapiens, UniProt P35218); test: Thermal shift assay (TSA), recombinant CAVA; type: binding; conditions: 37 °C, pH 7.0, observed (not intrinsic)
T4 construct: made in house; host or cells: E. coli
T4 sequence (P35218 39-305): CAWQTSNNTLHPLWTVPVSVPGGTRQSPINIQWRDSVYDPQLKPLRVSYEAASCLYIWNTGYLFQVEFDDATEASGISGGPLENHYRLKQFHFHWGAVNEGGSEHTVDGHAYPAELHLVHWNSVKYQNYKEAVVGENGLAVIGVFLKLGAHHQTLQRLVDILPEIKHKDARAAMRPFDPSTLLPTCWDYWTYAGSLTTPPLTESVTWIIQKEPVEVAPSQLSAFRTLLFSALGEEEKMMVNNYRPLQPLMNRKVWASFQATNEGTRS
Experimental: (§1) The binding affinities of all fluorescein-containing compounds were determined for all 12 catalytically active CA isozymes by the thermal shift assay (TSA). […] However, the SFA technique cannot determine the affinities lower than the enzyme concentration used in the assay. […] In addition, we used isothermal titration calorimetry (ITC), the standard assay to determine affinity and enthalpy of protein–ligand binding. […] Therefore, ITC was used only to determine the enthalpy of interaction and confirm the ordering of compound affinities.
(§2) All twelve catalytically active human CA isozymes were prepared recombinantly as previously described. Isozymes CAIX, CAXII, and CAXIV were the catalytic domains of the proteins[14],[38]. All isozymes were expressed in E. coli except CAIX that has been prepared in mammalian cells. The proteins were chromatographically purified on ion-exchange or benzene sulfonamide containing affinity columns. Protein MW was confirmed by mass spectrometry with 1 Da precision as predicted from gene sequence.
(§3) Compound affinities for the twelve catalytically active CA isozymes were determined by the thermal shift assay as previously described[30],[39]. Protein solutions containing 1,8-anilinonaphthalenesulfonate fluorescent probe were heated from 25 to 100 °C at a rate of one degree per minute while following the fluorescence of the probe. The temperature scanning curves provided the melting temperature Tm of the protein. The Tm has a distinct dependence on the concentration of a compound. Stronger binders shift the Tm to a greater extent than the weak binders. The Tm dependencies on compound concentration were fit to obtain the affinity Kd[40].

[1] = molecular target: T5, catalytic domain of recombinant human CAIX (Homo sapiens, UniProt Q16790); test: Thermal shift assay (TSA), recombinant CAIX catalytic domain; type: binding; conditions: for Kd: TSA, 37 °C, pH 7.0, observed (not intrinsic), read-out: Kd CAIX; for binding to CAIX by TSA (in words): recombinant CAIX
T5 construct: Isozymes CAIX, CAXII, and CAXIV were the catalytic domains of the proteins; made in house; host or cells: mammalian cells

CAIII = molecular target: T6, CAIII (Homo sapiens, UniProt P07451); test: Thermal shift assay (TSA), recombinant CAIII; type: binding; conditions: 37 °C, pH 7.0, observed (not intrinsic)
T6 construct: made in house; host or cells: E. coli
T6 sequence (P07451 whole entry): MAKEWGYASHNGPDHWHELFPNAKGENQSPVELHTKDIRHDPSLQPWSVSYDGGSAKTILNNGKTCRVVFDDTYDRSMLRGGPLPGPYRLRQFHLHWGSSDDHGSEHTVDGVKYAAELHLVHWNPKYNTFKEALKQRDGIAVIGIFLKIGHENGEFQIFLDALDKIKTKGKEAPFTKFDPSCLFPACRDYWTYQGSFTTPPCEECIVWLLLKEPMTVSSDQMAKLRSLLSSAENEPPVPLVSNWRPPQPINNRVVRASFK
Experimental: as §1, §2, §3

CAVB = molecular target: T7, CAVB (Homo sapiens, UniProt Q9Y2D0); test: Thermal shift assay (TSA), recombinant CAVB; type: binding; conditions: 37 °C, pH 7.0, observed (not intrinsic)
T7 construct: made in house; host or cells: E. coli
T7 sequence (Q9Y2D0 34-317): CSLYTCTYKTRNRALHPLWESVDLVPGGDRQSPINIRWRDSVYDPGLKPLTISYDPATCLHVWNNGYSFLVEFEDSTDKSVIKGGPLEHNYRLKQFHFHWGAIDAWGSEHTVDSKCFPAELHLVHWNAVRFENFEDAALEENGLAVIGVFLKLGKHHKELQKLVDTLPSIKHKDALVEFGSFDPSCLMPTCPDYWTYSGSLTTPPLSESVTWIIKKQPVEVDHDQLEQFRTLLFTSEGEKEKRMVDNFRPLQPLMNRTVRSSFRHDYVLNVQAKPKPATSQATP

[2] = molecular target: T8, CAIX expressed on HeLa cells (Homo sapiens, UniProt Q16790); test: Fluorescein-labeled compound dosing to hypoxia-grown WT HeLa cells (Morrison single-site model); type: cell-based
T8 construct: recombinant CAIX and endogenous CAIX expressed on the cell surface; endogenous in cells; host or cells: HeLa (WT), grown under hypoxia (1% O2)
Experimental: HeLa cell culture was grown in 12-well plates, either under hypoxia (1% O2) or under normoxia (21% O2), for 70 to 76 h. The medium was removed. Then 200 µL of serially diluted compound (twelve twofold steps) in the FB medium, usually starting at 80 nM (80, 40, 20, …, 0 nM), was added and incubated at 37 ℃ under normoxia in the CO2 incubator for 20 min (2 or 5 min in some experiments where specified). Then the compound solution was removed and the cells were washed 3 times for 1.5–2 min with 400 µL of PBS at RT. Then 180 µL of TrypLe express enzyme (ThermoFisher) was added to each well and incubated in CO2 incubator for 5 min to 10 min until the cells deattached from the surface. After addition of 20 µL of Defined Trypsin Inhibitor solution (ThermoFisher), cells were resuspended by pipetting and 150 µL of the suspension from each well were transferred to black Thermo Scientific™ Nunc MicroWell 96-Well Optical-Bottom Plates for fluorescence and absorbance measurements. The fluorescence was recorded at 485 nm excitation and 520 nm emission wavelengths in the plate reader (Synergy HTX, BioTek). The absorbance was recorded at 650 nm to measure the optical density of the cell suspension.
The compound solution was prepared by weighing 3–5 mg of a purified compound and dissolving in DMSO at 10 mM concentration. The 1 mM compound stock in DMSO was prepared by taking 10 µL of 10 mM stock and adding to 90 µL DMSO. The 10 µM compound stock was prepared by taking 10 µL of 1 mM compound stock in DMSO and adding 990 µL of the FB medium (this stock contained 1% of DMSO). Then 80 nM compound solution was prepared by taking 10 µL of 10 µM solution and adding 1.24 mL of the FB medium and placed to the first Eppendorf tube. Then 300 µL of FB medium were added to the Eppendorf tubes 2 to 12. A serial dilution was performed by taking 300 µL of solution from tube 1 to 2, then from 2 to 3 and so on while mixing vigorously at each step. No solution was transferred to the last tube thus it contained only FB medium and no compound. Then 200 µL from 12 tubes were transferred to the 12 wells of cell culture-containing 12-well plate, starting from the lowest concentration.
Application of fluorescently labeled ligand GZ19-32 to cancer cells expressing CAIX will stain the cells in dose-dependent manner. The fraction of saturation increases from 0 to 1. The fraction of bound GZ19-32 (f) is equal to the molar concentration of bound GZ19-32 per molar concentration of total available CAIX, the so-called total protein Pt . f=GZ19-32bound/Pt
Upon GZ19-32 dosing, the observed fluorescence signal F can be modeled to change from the minimal background signal ( Fmin ) to maximal saturated value ( Fmax ): F=Fmin+Fmax-Fminf […]

T1 sequence (P00915 whole entry): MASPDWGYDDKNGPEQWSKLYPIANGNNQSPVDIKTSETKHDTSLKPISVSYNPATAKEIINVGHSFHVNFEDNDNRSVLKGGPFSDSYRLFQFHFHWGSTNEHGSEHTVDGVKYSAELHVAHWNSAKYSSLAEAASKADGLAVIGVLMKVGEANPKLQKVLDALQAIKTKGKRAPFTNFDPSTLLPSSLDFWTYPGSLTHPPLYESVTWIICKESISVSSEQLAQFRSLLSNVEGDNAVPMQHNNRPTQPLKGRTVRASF

Row | number of bound molecules per HeLa cell ([2]; approximately 80 h of growth under hypoxia) | concentration at which saturation was reached ([2]; hypoxia-grown HeLa cells) | melting point [°C] | Molecule | Kd (CAI) [nM] | Kd (CAXIV) [nM] | Kd (CAVII) [nM] | Kd (CAVA) [nM] | Kd [1] [nM] | binding to CAIX by TSA (in words) [1] | Kd (CAIII) [nM] | Kd (CAVB) [nM] | binding to hypoxia-grown HeLa cells in the nM concentration region ([2]; same conditions as GZ19-32, up to about 100 nM)
1 | exceeded 1 million | approximately 10 nM | 189 to 190 | NS(=O)(=O)c1c(F)c(F)c(S(=O)(=O)CCC(=O)Nc2ccc3c(c2)C(=O)OC32c3ccc(O)cc3Oc3cc(O)ccc32)c(NC2CCCCCCC2)c1F [GZ19-32, 3-((2-(cyclooctylamino)-3,5,6-trifluoro-4-sulfamoylphenyl)sulfonyl)-N-(3',6'-dihydroxy-3-oxo-3H-spiro[isobenzofuran-1,9'-xanthen]-5-yl)propanamide] | 500 | 3.3 | 5 | 400 | 0.005 | high affinity for CAIX (pM range) | 1670 | 13 | 
2 |  |  |  | 3-((2-(cyclooctylamino)-3,5,6-trifluoro-4-(methylsulfonyl)phenyl)sulfonyl)-N-(3',6'-dihydroxy-3-oxo-3H-spiro[isobenzofuran-1,9'-xanthen]-5-yl)propanamide and 3-((3-(cyclooctylamino)-2,5,6-trifluoro-4-(methylsulfonyl)phenyl)sulfonyl)-N-(3',6'-dihydroxy-3-oxo-3H-spiro[isobenzofuran-1,9'-xanthen]-5-yl)propanamide [GZ20-37] | > 100000 | > 100000 | > 100000 | > 100000 | > 100000 | did not show binding | > 100000 | > 100000 | did not bind

From paper PMC9586938, “Picomolar fluorescent probes for compound affinity determination to carbonic anhydrase IX expressed in live cancer cells” (Scientific Reports, 2022)
